Read-outs that look alike come from different tables or passages of the source.
Tests used:
[1] = TLR7/8 agonist PK study in SD rats (i.v.); settings: 0.08 mg/kg, plasma; for MTRinf: SD rats, i.v.; for AUC(0-inf) / AUC(0-t) / C0 / MRT last / Vd / clearance / half-life: both, Sprague-Dawley (SD), rat, iv
Method: (§3) SPF SD rats were purchased from BioLASCO Taiwan Co. Ltd. Animals were randomly assigned to five groups with 3 males and 3 females in each group before dosing. The body weight variation of animals used were in an interval within ±20 percent of the mean weight for each gender.
(§4) Blood samples (200-350 μL/time point) were obtained through tail vein at pre-dose and 2 min, 5 min, 15 min, 30 min, 1 hr, 2 hr, 4 hr, 6 hr, 8 hr, 12 hr and 24 hr post dosing. The blood samples were collected into tubes containing K2EDTA and maintained on ice no more than 30 minutes, then centrifuged (1500-1750 xg, 15 min, 2-8° C.) for plasma harvest.
(§5) The study samples were prepared and analyzed in parallel using liquid chromatography-tandem mass spectrometry. In pharmacokinetics evaluation following the determined concentrations in rat plasma, pharmacokinetic parameters were calculated using WinNonlin (Pharsight Corporation, version 6.3) with non-compartmental methods.

hTLR8 = biological target: T1, hTLR8 (Homo sapiens, UniProt Q9NR97); experiment: TLR7/8 agonist potency assay in HEK-Blue hTLR8 cells (SEAP reporter); type: cell-based; settings: about 16 hrs incubation, SEAP at 635 nm, read-out: TLR8 Agonistic EC50 (converted)
T1 construct: expressed in transfected cells; host or cells: HEK-Blue hTLR8 cells (HEK293-derived SEAP reporter line; own knowledge: commercial line stably transfected with the human TLR8 gene)
T1 sequence (Q9NR97 27-1041): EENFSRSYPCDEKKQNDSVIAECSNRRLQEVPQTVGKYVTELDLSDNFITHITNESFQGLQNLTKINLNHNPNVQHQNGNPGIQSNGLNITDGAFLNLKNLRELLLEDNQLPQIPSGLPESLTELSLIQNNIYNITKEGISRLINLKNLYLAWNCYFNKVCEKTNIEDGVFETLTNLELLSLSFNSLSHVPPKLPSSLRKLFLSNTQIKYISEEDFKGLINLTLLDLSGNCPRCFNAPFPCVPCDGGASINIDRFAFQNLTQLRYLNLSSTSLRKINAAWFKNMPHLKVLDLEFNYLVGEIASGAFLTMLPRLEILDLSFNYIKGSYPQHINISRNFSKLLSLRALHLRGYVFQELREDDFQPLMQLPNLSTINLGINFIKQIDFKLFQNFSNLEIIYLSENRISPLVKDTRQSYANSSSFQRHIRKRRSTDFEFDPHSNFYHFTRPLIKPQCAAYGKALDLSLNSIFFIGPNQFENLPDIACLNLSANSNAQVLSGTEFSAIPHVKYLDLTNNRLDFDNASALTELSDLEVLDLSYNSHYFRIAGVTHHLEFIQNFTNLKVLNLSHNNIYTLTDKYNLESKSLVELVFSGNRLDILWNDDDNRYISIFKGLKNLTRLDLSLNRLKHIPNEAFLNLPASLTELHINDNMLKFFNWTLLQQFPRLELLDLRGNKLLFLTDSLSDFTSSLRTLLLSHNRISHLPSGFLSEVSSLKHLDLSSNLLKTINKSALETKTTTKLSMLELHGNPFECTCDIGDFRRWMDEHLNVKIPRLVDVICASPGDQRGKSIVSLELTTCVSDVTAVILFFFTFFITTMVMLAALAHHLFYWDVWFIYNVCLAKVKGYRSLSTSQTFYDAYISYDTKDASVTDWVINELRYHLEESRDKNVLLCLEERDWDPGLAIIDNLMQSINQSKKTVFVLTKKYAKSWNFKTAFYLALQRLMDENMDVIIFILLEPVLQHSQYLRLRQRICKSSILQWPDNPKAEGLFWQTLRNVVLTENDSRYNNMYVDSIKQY
Method: (§1) HEK-Blue hTLR8 cells can serve to measure the bioactivity of TLR8 through the secretion of embryonic alkaline phosphatase (SEAP) upon NF-κB activation following TLR8 stimulation. Water was used as negative control. After about 16 hrs incubation at 37° C. in 5% CO2, the SEAP was determined by using a spectrophotometer at 635 nm.
(§2) The dose-response curves were fit with four parameter logistic curve (SigmaPlot, version 9.0).

hTLR7 = biological target: T2, hTLR7 (Homo sapiens, UniProt Q9NYK1); experiment: TLR7/8 agonist potency assay in HEK-Blue hTLR7 cells (SEAP reporter); type: cell-based; settings: about 16 hrs incubation, SEAP at 635 nm; for EC50: read-out: TLR7 Agonistic EC50 (converted)
T2 construct: expressed in transfected cells; host or cells: HEK-Blue hTLR7 cells (HEK293-derived SEAP reporter line; own knowledge: commercial line stably transfected with the human TLR7 gene)
T2 sequence (Q9NYK1 27-1049): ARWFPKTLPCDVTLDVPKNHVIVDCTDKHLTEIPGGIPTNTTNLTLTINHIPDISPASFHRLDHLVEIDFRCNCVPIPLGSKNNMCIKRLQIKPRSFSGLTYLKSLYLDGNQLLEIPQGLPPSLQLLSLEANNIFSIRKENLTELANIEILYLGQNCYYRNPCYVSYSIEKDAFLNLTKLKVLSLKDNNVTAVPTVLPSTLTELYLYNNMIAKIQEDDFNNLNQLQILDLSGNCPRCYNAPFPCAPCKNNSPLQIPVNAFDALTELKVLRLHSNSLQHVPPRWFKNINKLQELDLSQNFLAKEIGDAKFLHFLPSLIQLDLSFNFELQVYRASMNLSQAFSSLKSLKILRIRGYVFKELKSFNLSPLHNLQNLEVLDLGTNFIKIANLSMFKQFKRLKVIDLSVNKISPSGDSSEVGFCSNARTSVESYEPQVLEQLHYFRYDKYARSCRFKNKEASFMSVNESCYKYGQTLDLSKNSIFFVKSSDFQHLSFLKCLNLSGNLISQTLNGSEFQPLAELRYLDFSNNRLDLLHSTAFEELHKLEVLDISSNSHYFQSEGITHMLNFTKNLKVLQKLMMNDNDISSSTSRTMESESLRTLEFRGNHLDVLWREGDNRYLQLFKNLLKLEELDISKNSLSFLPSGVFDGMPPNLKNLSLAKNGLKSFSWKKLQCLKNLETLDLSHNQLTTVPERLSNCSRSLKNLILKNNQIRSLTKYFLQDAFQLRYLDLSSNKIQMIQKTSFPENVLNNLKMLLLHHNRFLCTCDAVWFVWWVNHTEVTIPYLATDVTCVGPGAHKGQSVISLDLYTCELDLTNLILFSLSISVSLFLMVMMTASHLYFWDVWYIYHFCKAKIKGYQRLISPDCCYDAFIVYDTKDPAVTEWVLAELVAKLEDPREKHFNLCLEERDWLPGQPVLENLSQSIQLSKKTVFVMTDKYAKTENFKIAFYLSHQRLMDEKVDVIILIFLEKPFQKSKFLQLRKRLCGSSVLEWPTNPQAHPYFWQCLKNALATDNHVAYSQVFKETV
Method: as §1, with “TLR7” for “hTLR8”, “TLR7” for “TLR8”, “alkalinephosphatase” for “alkaline phosphatase”
as §2

in vivo = settings: both, Sprague-Dawley (SD), rat, iv, 0.08 mg/kg
Method: as §3, §4, §5

[2] = both, Sprague-Dawley (SD), rat, in vivo, iv, 0.08 mg/kg
Method: as §3, §4, §5

| MTRinf [1] [h] | AUC(0-inf) [1] [ng·h/mL] | AUC(0-t) [1] [ng·h/mL] | C0 [1] [ng/mL] | MRT last [1] [h] | Vd [1] [L/kg] | clearance [1] [mL/min/kg] | half-life [1] [h] | EC50 (hTLR8) [µM] | EC50 (hTLR7) [µM] | Compound | also measured |
| --- | --- | --- | --- | --- | --- | --- | --- | --- | --- | --- | --- |
| 3.87 ± 1.20 | 66.2 ± 4.81 | 62.5 ± 4.49 | 258 ± 47.6 | 1.87 ± 0.16 | 4.67 | 21.6 | 8.46 ± 1.72 |  |  | CCSCc1nc2c(N)nc3ccccc3c2n1CC(C)(C)O [Compound 4] |  |
| 4.90 ± 0.87 | 124 ± 9.96 | 118 ± 8.92 | 237 ± 44.2 | 3.15 ± 0.18 | 3.13 | 11.9 | 7.53 ± 1.03 | 1.58 | 0.124 | CC(C)(O)Cn1c(COC2CC2)nc2c(N)nc3ccccc3c21 [Compound 3] |  |
|  |  |  |  |  |  |  |  |  |  | CCCCNc1nc(N)c2[nH]c(=O)n(Cc3ccc(C(=O)NCC(=O)O)cc3)c2n1 [CL264, reference compound] | TLR7 Agonistic EC50 (hTLR7): 0.2602 ± 0.0124 µg/mL |
|  |  |  |  |  |  |  |  | 1.6 | 0.0983 | CC(C)(O)Cn1c(COCC(F)(F)F)nc2c(N)nc3ccccc3c21 [Compound 2] |  |
| 1.71 ± 0.22 | 82.8 ± 8.29 | 81.6 ± 8.49 | 224 ± 53.9 | 1.28 ± 0.19 | 1.82 | 17.1 | 6.46 ± 1.01 |  |  | CCS(=O)(=O)Cc1nc2c(N)nc3ccccc3c2n1CC(C)(C)O [Compound 6] |  |
|  |  |  |  |  |  |  |  |  |  | CCOCc1nc2c(N)nc3ccccc3c2n1CC(C)(C)O [Resiquimod] | AUC(0-inf) (in vivo): 66.2 ± 4.81 ng·h/mL; AUC(0-t) (in vivo): 62.5 ± 4.49 ng·h/mL; C0 (in vivo): 258 ± 47.6 ng/mL; MRT last (in vivo): 1.87 ± 0.16 h; Vd (in vivo): 4.67 L/kg; clearance (in vivo): 21.6 mL/min/kg; half-life (in vivo): 8.46 ± 1.72 h; MTRinf [2]: 3.87 ± 1.20 h |

— patent US20210214354A1, “IMIDAZOQUINOLINE COMPOUNDS AND USES THEREOF” (Birdie Biopharmaceuticals, Inc., priority 2018, published 2021)
